Results reported in patent US9791443B2, “Method for differentially quantifying naturally processed HLA-restricted peptides for cancer, autoimmune and infectious diseases immunotherapy development” (IMMATICS BIOTECHNOLOGIES GMBH, priority 2010, dated 2017).

System: CD8+ T cells
Experiment: In vitro immunogenicity: priming of CD8+ T cells with pMHC/anti-CD28 coated beads (aAPC), A*2402 multimer staining
Format: cell-based, human
Details: HLA-A*24 healthy donors, three stimulation cycles; for Positive donors/donors tested [%]: positive among evaluable donors, at least two donors evaluable per peptide; for Positive wells/wells tested [%]: positive among evaluable wells, at least 24 wells evaluable per peptide
Description: To get information regarding the immunogenicity of the TUMAPs of the present invention, we performed investigations using a well established in vitro stimulation platform already described by (Walter, S, Herrgen, L, Schoor, O, Jung, G, Wernet, D, Buhring, H J, Rammensee, H G, and Stevanovic, S; 2003, Cutting edge: predetermined avidity of human CD8 T cells expanded on calibrated MHC/anti-CD28-coated microspheres, J. Immunol., 171, 4974-4978).
In order to perform in vitro stimulations by artificial antigen presenting cells (aAPC) loaded with peptide-MHC complex (pMHC) and anti-CD28 antibody, we first isolated CD8 T cells from fresh HLA-A*24 leukapheresis products of healthy donors obtained from the Blood Bank Tuebingen.
CD8 T cells were either directly enriched from the leukapheresis product or PBMCs (peripheral blood mononuclear cells) were isolated first by using standard gradient separation medium (PAA, Cölbe, Germany). Isolated CD8 lymphocytes or PBMCs were incubated until use in T-cell medium (TCM) consisting of RPMI-Glutamax (Invitrogen, Karlsruhe, Germany) supplemented with 10% heat inactivated human AB serum (PAN-Biotech, Aidenbach, Germany), 100 U/ml Penicillin/100 μg/ml Streptomycin (Cambrex, Cologne, Germany), 1 mM sodium pyruvate (CC Pro, Oberdorla, Germany), 20 μg/ml Gentamycin (Cambrex). 2.5 ng/ml IL-7 (PromoCell, Heidelberg, Germany) and 10 U/ml IL-2 (Novartis Pharma, Nürnberg, Germany) were also added to the TCM at this step. Isolation of CD8+ lymphocytes was performed by positive selection using CD8 MicroBeads (Miltenyi Biotec, Bergisch-Gladbach, Germany).
Generation of pMHC/anti-CD28 coated beads, T-cell stimulations and readout was performed as described before (Walter et al. 4974-78) with minor modifications. Briefly, biotinylated peptide-loaded recombinant HLA-A*2402 molecules lacking the transmembrane domain and biotinylated at the carboxy terminus of the heavy chain were produced. The purified costimulatory mouse IgG2a anti human CD28 Ab 9.3 (Jung, Ledbetter, and Muller-Eberhard 4611-15) was chemically biotinylated using Sulfo-N-hydroxysuccinimidobiotin as recommended by the manufacturer (Perbio, Bonn, Germany).
800.000 beads/200 μl were coated in 96-well plates in the presence of 600 ng biotin anti-CD28 plus 200 ng relevant biotin-pMHC (high density beads). Stimulations were initiated in 96-well plates by co-incubating 1×10^6 CD8+ T cells with 2×10^5 washed coated beads in 200 μl TCM supplemented with 5 ng/ml IL-12 (PromoCell) for 3-4 days at 37° C. Half of the medium was then exchanged by fresh TCM supplemented with 80 U/ml IL-2 and incubating was continued for 3-4 days at 37° C. This stimulation cycle was performed for a total of three times. Finally, multimeric analyses were performed by staining the cells with Live/dead-Aqua dye (Invitrogen, Karlsruhe, Germany), CD8-FITC antibody clone SK1 (BD, Heidelberg, Germany) and PE- or APC-coupled A*2402 MHC multimers. For analysis, a BD LSRII SORP cytometer equipped with appropriate lasers and filters was used. Peptide specific cells were calculated as percentage of total CD8+ cells. Evaluation of multimeric analysis was done using the FlowJo software (Tree Star, Oregon, USA). In vitro priming of specific multimer+ CD8+ lymphocytes was detected by appropriate gating and by comparing to negative control stimulations.

| Sequence | Positive donors/donors tested [%] | Positive wells/wells tested [%] |
| --- | --- | --- |
| VYTTSYQQI (listed as Homo sapiens) [NFYB-001] | 50% | 7% |
| VWSDVTPLTF [PROM1-001] | 83% | 26% |
| RFLSGIINF (listed as Homo sapiens) [NUF2-002] | 50% | 4% |
| YYNAAGFNKL (listed as Homo sapiens) [UQCRB-001] | 100% | 38% |
| FYISPVNKL (listed as Homo sapiens) [AVL9-001] | 100% | 50% |
| SYIDVLPEF (listed as Homo sapiens) [MET-006] | 63% | 22% |
| NYLLYVSNF [MST1R-001] (listed as Homo sapiens) | 50% | 14% |
| NYLPFIMEL (listed as Homo sapiens) [UCHL5-001] | 75% | 14% |
| VFIFKGNQF (listed as Homo sapiens) [MMP3-001] | 13% | 1% |
| AYAIIKEEL (listed as Homo sapiens) [ATAD2-001] | 50% | 4% |
| KYNDTFWKEF (listed as Homo sapiens) [HSP90B1-001] | 50% | 4% |
| SYNPLWLRI (listed as Homo sapiens) [ASPM-002] | 63% | 31% |
| VFDTAIAHLF (listed as Homo sapiens) [SIAH2-001] | 50% | 4% |
| QYASRFVQL (listed as Homo sapiens) [PLK4-001] | 60% | 5% |
| HYKPTPLYF (listed as Homo sapiens) [SMC4-001] | 75% | 9% |
| VYKVVGNLL (listed as Homo sapiens) [IQGAP3-001] | 100% | 24% |
| NYEETFPHI (listed as Homo sapiens) [MUC6-001] | 50% | 21% |
| VYIEKNDKL (listed as Homo sapiens) [ERBB3-001] | 83% | 15% |
| LYQILQGIVF (listed as Homo sapiens) [CDC2-001] | 88% | 28% |
| TYGNLLDYL (listed as Homo sapiens) [ABL1-001] | 50% | 13% |
| IYNGKLFDLL (listed as Homo sapiens) [KIF2C-001] | 13% | 2% |
| RYLWATVTI (listed as Homo sapiens) [ASPM-001] | 17% | 3% |
| AYLVYTDRL (listed as Homo sapiens) [PPAP2C-001] | 100% | 54% |
| VYGIRLEHF (listed as Homo sapiens) [NUF2-001] | 100% | 25% |
| NYLLYVSNF [MMP11-001] | 33% | 11% |
